According to ChEMBL document CHEMBL1128079, “Differential RXR & RAR activity of stilbene retinoid analogs bearing thiazole and imidazole carboxylic acids” (Bioorg Med Chem Lett, 1995):

Key:
Format in all cases: functional
[1] = biological target: T1, Retinoic acid receptor RXR-gamma (Homo sapiens, UniProt P48443); test: Agonist activity for retinoic acid receptor RXR gamma in transcriptional activation assay
T1 sequence (P48443 whole entry): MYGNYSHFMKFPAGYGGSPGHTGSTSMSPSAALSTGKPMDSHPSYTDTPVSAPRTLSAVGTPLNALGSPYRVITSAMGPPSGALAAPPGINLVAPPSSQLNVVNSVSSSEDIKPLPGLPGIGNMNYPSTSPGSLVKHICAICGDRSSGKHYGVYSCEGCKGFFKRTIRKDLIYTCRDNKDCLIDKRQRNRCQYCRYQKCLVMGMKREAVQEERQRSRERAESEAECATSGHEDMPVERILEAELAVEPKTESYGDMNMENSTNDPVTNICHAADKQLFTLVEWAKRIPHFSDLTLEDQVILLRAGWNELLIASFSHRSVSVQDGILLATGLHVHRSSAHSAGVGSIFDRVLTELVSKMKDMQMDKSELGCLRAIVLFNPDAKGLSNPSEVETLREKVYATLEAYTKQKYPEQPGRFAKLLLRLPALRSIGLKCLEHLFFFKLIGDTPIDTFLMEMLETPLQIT

[2] = biological target: T2, Retinoic acid receptor gamma (Homo sapiens, UniProt P13631); test: Agonist activity for retinoic acid receptor RAR gamma in transcriptional activation assay
T2 sequence (P13631 whole entry): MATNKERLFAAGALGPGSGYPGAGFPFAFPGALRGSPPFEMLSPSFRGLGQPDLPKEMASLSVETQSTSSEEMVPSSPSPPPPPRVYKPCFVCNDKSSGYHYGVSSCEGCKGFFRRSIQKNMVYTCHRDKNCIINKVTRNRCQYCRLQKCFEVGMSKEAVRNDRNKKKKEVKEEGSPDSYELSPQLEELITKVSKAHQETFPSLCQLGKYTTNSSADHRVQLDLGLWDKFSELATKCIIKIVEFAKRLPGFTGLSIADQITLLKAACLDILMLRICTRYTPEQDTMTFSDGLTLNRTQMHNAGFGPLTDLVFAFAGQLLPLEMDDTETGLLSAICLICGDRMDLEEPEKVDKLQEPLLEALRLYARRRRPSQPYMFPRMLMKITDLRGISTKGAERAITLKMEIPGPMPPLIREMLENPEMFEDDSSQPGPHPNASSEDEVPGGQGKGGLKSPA

[3] = biological target: T3, Retinoic acid receptor alpha (Homo sapiens, UniProt P10276); test: Agonist activity for retinoic acid receptor RAR alpha in transcriptional activation assay; […]
T3 sequence (P10276 whole entry): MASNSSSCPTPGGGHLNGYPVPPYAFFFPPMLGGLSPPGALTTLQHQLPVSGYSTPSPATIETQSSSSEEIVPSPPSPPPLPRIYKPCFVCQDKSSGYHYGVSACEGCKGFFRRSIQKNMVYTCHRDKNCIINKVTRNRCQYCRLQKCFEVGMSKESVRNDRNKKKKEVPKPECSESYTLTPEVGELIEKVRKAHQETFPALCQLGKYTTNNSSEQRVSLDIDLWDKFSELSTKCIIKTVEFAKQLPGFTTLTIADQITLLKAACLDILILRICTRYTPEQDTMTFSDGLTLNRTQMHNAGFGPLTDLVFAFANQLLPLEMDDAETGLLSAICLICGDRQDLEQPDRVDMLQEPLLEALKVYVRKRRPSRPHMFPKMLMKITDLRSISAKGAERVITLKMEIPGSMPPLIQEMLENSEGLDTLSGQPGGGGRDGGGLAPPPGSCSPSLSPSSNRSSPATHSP

[4] = biological target: T4, Retinoic acid receptor RXR-beta (Homo sapiens, UniProt P28702); test: Agonist activity for retinoic acid receptor RXR beta in transcriptional activation assay
T4 sequence (P28702 whole entry): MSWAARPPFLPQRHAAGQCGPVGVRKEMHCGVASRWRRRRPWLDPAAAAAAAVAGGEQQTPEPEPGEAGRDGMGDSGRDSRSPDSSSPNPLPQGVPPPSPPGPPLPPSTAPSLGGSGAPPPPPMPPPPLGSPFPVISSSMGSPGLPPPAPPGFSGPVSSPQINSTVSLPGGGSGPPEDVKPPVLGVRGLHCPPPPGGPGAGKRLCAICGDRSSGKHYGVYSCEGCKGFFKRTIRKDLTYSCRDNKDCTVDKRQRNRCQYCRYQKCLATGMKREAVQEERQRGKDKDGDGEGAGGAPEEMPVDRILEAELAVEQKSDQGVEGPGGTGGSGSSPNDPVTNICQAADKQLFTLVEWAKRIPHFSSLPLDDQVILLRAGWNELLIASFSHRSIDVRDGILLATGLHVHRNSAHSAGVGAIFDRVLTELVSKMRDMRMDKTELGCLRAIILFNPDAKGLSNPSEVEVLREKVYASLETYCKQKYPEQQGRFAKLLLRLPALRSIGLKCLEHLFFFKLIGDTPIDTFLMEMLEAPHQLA

[5] = biological target: T5, Retinoic acid receptor RXR-alpha (Homo sapiens, UniProt P19793); test: Agonist activity for retinoic acid receptor RXR alpha in transcriptional activation assay
T5 sequence (P19793 whole entry): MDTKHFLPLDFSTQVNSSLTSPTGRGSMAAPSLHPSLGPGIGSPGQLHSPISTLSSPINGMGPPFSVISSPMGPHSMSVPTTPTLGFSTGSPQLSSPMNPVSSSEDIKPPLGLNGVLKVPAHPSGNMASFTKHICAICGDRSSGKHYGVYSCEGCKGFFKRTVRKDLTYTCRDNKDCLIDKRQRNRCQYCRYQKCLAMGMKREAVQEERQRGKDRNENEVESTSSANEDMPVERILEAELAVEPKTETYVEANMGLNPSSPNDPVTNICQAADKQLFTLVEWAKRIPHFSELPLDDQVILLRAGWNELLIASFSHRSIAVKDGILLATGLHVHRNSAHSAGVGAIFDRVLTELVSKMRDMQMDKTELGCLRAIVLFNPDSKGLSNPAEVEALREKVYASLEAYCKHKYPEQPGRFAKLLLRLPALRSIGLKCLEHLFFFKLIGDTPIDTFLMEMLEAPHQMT

[6] = biological target: T6, Retinoic acid receptor beta (Homo sapiens, UniProt P10826); test: Agonist activity for retinoic acid receptor RAR beta in transcriptional activation assay
T6 sequence (P10826 whole entry): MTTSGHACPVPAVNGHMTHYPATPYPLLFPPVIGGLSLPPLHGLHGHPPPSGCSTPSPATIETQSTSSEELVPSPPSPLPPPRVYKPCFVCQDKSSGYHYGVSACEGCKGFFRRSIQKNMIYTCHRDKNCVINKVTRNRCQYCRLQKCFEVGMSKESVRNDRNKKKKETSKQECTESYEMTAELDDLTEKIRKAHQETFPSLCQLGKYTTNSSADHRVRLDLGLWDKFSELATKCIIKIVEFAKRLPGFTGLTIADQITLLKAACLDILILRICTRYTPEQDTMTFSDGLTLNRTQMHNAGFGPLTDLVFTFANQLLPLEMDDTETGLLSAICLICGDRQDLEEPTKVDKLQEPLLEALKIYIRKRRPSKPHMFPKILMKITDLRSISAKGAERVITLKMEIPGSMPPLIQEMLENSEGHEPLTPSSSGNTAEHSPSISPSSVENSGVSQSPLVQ

[7] = biological target: T6, Retinoic acid receptor beta; test: Agonist activity for retinoic acid receptor RAR beta in transcriptional activation assay; […]
[8] = biological target: T2, Retinoic acid receptor gamma; test: Agonist activity for retinoic acid receptor RAR gamma in transcriptional activation assay; […]
[9] = biological target: T3, Retinoic acid receptor alpha; test: Agonist activity for retinoic acid receptor RAR alpha in transcriptional activation assay

Structure (SMILES)	EC50 [1]	EC50 [2]	EC50 [3]	EC50 [4]	EC50 [5]	EC50 ([1]; read-out: EC50)	EC50 [6]	EC50 [7]	EC50 [8]	EC50 [9]
C/C(=C\c1ccc(C(=O)O)cc1)c1ccc2c(c1)C(C)(C)CCC2(C)C	Not Active	–	–	–	–	–	–	–	–	–
C/C(=C\c1nc(C(=O)O)c[nH]1)c1cc2c(cc1C)C(C)(C)CCC2(C)C	–	–	Not Active	130 nM	89 nM	170 nM	–	Not Active	Not Active	–
C/C(=C\c1ccc(C(=O)O)s1)c1cc2c(cc1C)C(C)(C)CCC2(C)C	–	131 nM	Not Active	23 nM	35 nM	33 nM	56 nM	–	–	–
C/C(=C\c1ccc(C(=O)O)s1)c1ccc2c(c1)C(C)(C)CCC2(C)C	–	15 nM	–	2300 nM	2400 nM	2300 nM	29 nM	–	–	690 nM
C/C(=C\c1ncc(C(=O)O)s1)c1ccc2c(c1)C(C)(C)CCC2(C)C	–	34 nM	–	210 nM	210 nM	160 nM	46 nM	–	–	210 nM

Further compounds by falling EC50 [4], results first:

EC50 [1]	EC50 [2]	EC50 [3]	EC50 [4]	EC50 [5]	EC50 ([1]; read-out: EC50)	EC50 [6]	EC50 [7]	EC50 [8]	EC50 [9]	Structure (SMILES)
–	–	Not Active	180 nM	59 nM	86 nM	–	Not Active	Not Active	–	C/C(=C\c1ncc(C(=O)O)n1S(=O)(=O)N(C)C)c1cc2c(cc1C)C(C)(C)CCC2(C)C
–	979 nM	Not Active	180 nM	215 nM	105 nM	1990 nM	–	–	–	C/C(=C\c1cc(C(=O)O)cs1)c1cc2c(cc1C)C(C)(C)CCC2(C)C
–	200 nM	Not Active	3 nM	4 nM	4 nM	220 nM	–	–	–	C/C(=C\c1ncc(C(=O)O)s1)c1cc2c(cc1C)C(C)(C)CCC2(C)C
